Like-named read-outs stand apart in the source and are kept apart here. Where no end group is shown, it is not given here.
Legend:
[1] = test system: mice; details: topical, WO 2018/048779; cited from earlier work
[2] = test system: healthy volunteers; details: for Cohen's d, VAS (0-5 min): Capsaicin, 95 mg oral vs placebo
[3] = test system: healthy volunteers; assay: Laser algesimetry, laser evoked potentials (LEP), N2-P2 Peak-to-Peak amplitude; type: in vivo, human; details: for PtP Mean Difference: topical, difference from placebo, day 4 (AUC)
Protocol: Healthy volunteers were screened for eligibility from Day −28 to Day −2 before first treatment. During screening also, a training session (without study medication) was performed in order to introduce subjects to the testing and rating procedures. Prior to testing the laser evoked potentials (LEPs) from healthy skin, the individual Laser Pain Threshold (LPT) was be determined for each volunteer.
(§1) At Day 1, Areas 1-4 were treated with 1 ml of the Compound 1 Gel (0.05 ml/cm^2) or placebo and were tested for changes in LEP-amplitudes and Visual Analog Scale Rating of Pain (VAS-P). Assessments were performed before and after (investigational medicinal product) IMP application. At Days 2 and 3, LEPs and VAS-P assessments will also be performed before and 1 h after the second and third application of IMP at the same time as on Day 1 (±1 h). At test Day 4, LEPs and VAS-P were evaluated for areas 1-4 at 1, 6 and 9 h after the 4th IMP application.
At the 2 h time point on Day 4, skin areas 5 and 6 will be UVR irradiated with 2 MED. LEPs, VAS-P, erythema (by skin reflection spectrometry (SRS)) and pin prick hyperalgesia (by weighted needle threshold (WNT)) were evaluated before and 1, 2, 3, 6 and 9 h after UVR. At the same time points, anti-inflammatory effects on the areas of UVR will be evaluated by SRS with the a-value being the measure of “redness”. […] One hour after IMP application and 24±1 h after UVR, LEPs and VAS-Pain were evaluated on areas 1-6. In addition, erythema (SRS) and pin prick hyperalgesia (WNT) were evaluated on areas 5 and 6. […]
Laser algesimetry is an experimental induction of pain by means of a contact-free thermo-nociceptive laser beam with a constant short duration (ms) and individually adjusted intensity above the pain threshold (determined at Screening). Objective and quantitative measurement of nociception is accomplished by the analysis of the contingent vertex EEG event-related potentials (somatosensory/radiant heat ERPs).
The study effects of the study medications (the Compound 1 Gel and placebo) were measured as a reduction in the PtP amplitude. […]

[4] = test system: patients undergoing surgical removal of a mandibular third molar; assay: Molar extraction study (legacy), oral AZD1386, pain intensity VAS; type: in vivo, human; details: 95 mg oral vs placebo
Protocol: This was a single dose, randomised, double-blind, double dummy, placebo- and Naproxen controlled study to investigate the analgesic efficacy of AZD1386 95 mg in patients undergoing surgical removal of a partially or completely impacted mandibular third molar, where bone removal was judged to be needed. Naproxen 500 mg was included as a treatment arm, for assay sensitivity only.
Patients requesting pain relief, due to pain from the dental surgical area, within 6 hours after the end of the administration of the local anaesthetic (last anaesthetic dose) were randomised to 1 of 3 treatment arms: 40 patients received AZD1386 95 mg oral solution and Naproxen placebo capsule, 40 patients received AZD1386 placebo oral solution and Naproxen placebo capsule and 23 patients received AZD1386 placebo oral solution and Naproxen 500 mg (for assay sensitivity only). A visual Analogue Scale (VAS) was used for the assessment of pain intensity and pain on jaw movement. The VAS consists of an ungraduated 100 mm horizontal line with the left end (0 mm) marked “No pain” and the right end (100 mm) marked “Worst pain imaginable”. The patient indicated his/her present pain intensity and pain on jaw movement by drawing a vertical line across the scale on paper CRF pages. The pain intensity was rated by the patients immediately prior to administration of the investigational product, and subsequent assessments were performed at 15 min, 30 min, 45 min, 1 h, 1 h15 min, 1 h30 min, 1 h45 min, 2 h, 2 h30 min, 3 h, 4 h, 5 h, 6 h, 7 h, and 8 h after the start of administration of the investigational product.

[5] = test system: healthy volunteers; assay: tolerability in the clinical study; details: normal skin, skin with a compromised barrier function and inflamed skin
[6] = oral medication; Quiding et al. PAIN 154 (2013); cited from earlier work
[7] = test system: healthy volunteers; assay: VAS-Pain (post-laser pain); type: in vivo, human; details: for Mean (LEP induced VAS pain): n=24; for VAS Mean Difference: topical, difference from placebo, day 4 (AUC)
Protocol: as §1
At the 2 h time point on Day 4, skin areas 5 and 6 will be UVR irradiated with 2 MED. LEPs, VAS-P, erythema (by skin reflection spectrometry (SRS)) and pin prick hyperalgesia (by weighted needle threshold (WNT)) were evaluated before and 1, 2, 3, 6 and 9 h after UVR. At the same time points, anti-inflammatory effects on the areas of UVR will be evaluated by SRS with the a-value being the measure of “redness”. Subjects returned on Day 5 for the 5th IMP application. One hour after IMP application and 24±1 h after UVR, LEPs and VAS-Pain were evaluated on areas 1-6. In addition, erythema (SRS) and pin prick hyperalgesia (WNT) were evaluated on areas 5 and 6. Subjects returned for a follow-up visit at Day 9 (±1).
VAS-Pain is a subjective assessment of pain, which was used for all skin conditions. Electronic nociceptive scoring with electronic 100-mm visual analog scales (VASs) for post-laser pain (VAS-P) was assessed on a tablet PC, which allowed the subject to discriminate pain severity between no pain and strong pain using a 0 to 100 mm scale. The measurements were taken after each laser session—summarizing the overall impression of the “painfulness” of the whole session.
The statistical analysis was based on the evaluation of treatment related differences at the individual time points and comparison of the AUC (Area Under the Curve) parameter derived from the efficacy endpoints.
The timepoints to be included in the calculation of the AUC depended on the objective. • 1. For evaluating objective a) and b) (treatment areas 1-4), two AUC calculations were used • a. All evaluations at 1 h after IMP application at Days 1-5, the assessment at predose on Day 1 served as reference. • b. Evaluations at all timepoints at Day 4 and before IMP application on Day 5 • 2. For evaluating objective c) and d) all timepoints at Day 4 and the assessments before IMP application on Day 5 will be included in the calculation of the AUC related to treatment areas (treatment area 5 and 6).
Those parameters were analysed using a linear mixed regression model. The regression included the classification variable treatment (A1, A2, B1 and B2 resp. A3 and B3) and the corresponding baseline value (pre dose measurement on normal skin) as fixed effects and the intercept over the subjects as a random effect.
All treatment differences with 95% confidence intervals were estimated from this model. The null-hypotheses that these differences are equal to zero (no difference between active treatments and placebo) were tested at the 5% level against the two-sided alternatives.
Data used from study described in Example 2 for calculating Cohen's D were taken at the 1, 6 and 9 hour time points on day 4 of the study and are shown in the table below. The standard deviation (SD) was derived from the standard error (SE) taking into account the sample size of n=24.

[8] = test system: healthy volunteers; details: difference from placebo, cited from earlier work
[9] = test system: healthy volunteers; details: difference from placebo, cited from earlier work; remark: listed apart in the source
[10] = Duloxetin 60 mg (oral), Schaffler et al. (2017)
[11] = Etoricoxib 90 mg (oral), Schaffler et al. (2013)
[12] = Lacosamide 60 mg (oral), Schaffler et al. (2017)
[13] = Pregabalin 150 mg (oral), Schaffler et al. (2017)
[14] = Tramadol 100 mg (oral), Schaffler et al. (2013)

CC(C)(C)c1ccc(/C=C/C(=O)Nc2ccc3c(c2)OCCO3)cc1 [AMG9810]
capsaicin-induced wound licking [1]: reduced

C[C@H](NC(=O)Cn1cnc2ccc(F)c(F)c21)c1ccc(C(C)(C)C)cc1 [Compound 1]
Cohen's d, VAS (0-5 min) ([2]; 01:08 h after IMP): 0.04 | Cohen's d, VAS (0-5 min) ([2]; 01:38 h after IMP, listed as AZD1386): 0.3 | Cohen's d, VAS (0-5 min) ([2]; 02:38 h after IMP): 0.06 | Cohen's d, VAS (0-5 min) ([2]; 03:38 h after IMP): 0.22 | Cohen's d, VAS (0-5 min) ([2]; 05:08 h after IMP): 0.15 | time of significant analgesic effects after oral administration ([2]; oral, consistent across the two legacy studies): 1 to 1.5 h | PtP Mean Difference ([3]; normal skin): 6.8 μV | analgesic effects of topical treatment ([3]; normal, optimized and UVR inflamed skin): highly superior to placebo | PtP Mean Difference ([3]; optimised skin): 9.1 μV | Cohen's d, VAS (vs basel.) ([4]; 01:00 h after IMP): 0.66 | Cohen's d, VAS (vs basel.) ([4]; 01:30 h after IMP): 0.12 | Cohen's d, VAS (vs basel.) ([4]; 02:30 h after IMP): in favour | Cohen's d, VAS (vs basel.) ([4]; 03:00 h after IMP): in favour | Cohen's d, VAS (vs basel.) ([4]; 04:00 h after IMP): in favour | Cohen's d, VAS (vs basel.) ([4]; 05:00 h after IMP): in favour | Cohen's d, VAS (vs basel.) ([4]; 06:00 h after IMP): in favour | tolerability [5]: well tolerated | liver enzymes [6]: elevations in liver enzymes | Mean (LEP induced VAS pain) ([7]; Day 4, 1 h, Normal skin): 32.63 mm | Mean (LEP induced VAS pain) ([7]; Day 4, 1 h, Optimized skin): 22.56 mm | Mean (LEP induced VAS pain) ([7]; Day 4, 6 h, Normal skin): 32.41 mm | Mean (LEP induced VAS pain) ([7]; Day 4, 6 h, Optimized skin): 28.01 mm | Mean (LEP induced VAS pain) ([7]; Day 4, 9 h, Normal skin): 35.64 mm | Mean (LEP induced VAS pain) ([7]; Day 4, 9 h, Optimized skin): 32.27 mm | VAS Mean Difference ([7]; normal skin): 13.2 mm | VAS Mean Difference ([7]; optimised skin): 18.7 mm

CNCC[C@H](Oc1cccc2ccccc12)c1cccs1 [Duloxetin]
PtP Mean Difference [8, 10]: 1.7 μV | VAS Mean Difference [9, 10]: 2.2 mm

Cc1ccc(-c2ncc(Cl)cc2-c2ccc(S(C)(=O)=O)cc2)cn1 [Etoricoxib]
PtP Mean Difference [8, 11]: 0.2 μV | VAS Mean Difference [9, 11]: 1.2 mm

COC[C@@H](NC(C)=O)C(=O)NCc1ccccc1 [Lacosamide]
PtP Mean Difference [8, 12]: 0.5 μV | VAS Mean Difference [9, 12]: 2.1 mm

CC(C)C[C@H](CN)CC(=O)O [Pregabalin]
PtP Mean Difference [8, 13]: 2.7 μV | VAS Mean Difference [9, 13]: 9.1 mm

COc1cccc(C2(O)CCCCC2CN(C)C)c1 (centres unmarked) [Tramadol]
PtP Mean Difference [8, 14]: 4.5 μV | VAS Mean Difference [9, 14]: 7.1 mm

QRFSR [opiorphin]
capsaicin-induced wound licking [1]: reduced

— patent US20240216338A1, “NEW FORMULATIONS AND USES” (ALZECURE PHARMA AB, priority 2021, published 2024)
